From US8940722B2, “Compounds for modulation of orphan nuclear receptor RAR-related orphan receptor-gamma (RORγ, NR1F3) activity and for the treatment of chronic inflammatory and autoimmune disease” (Phenex Pharmaceuticals AG, priority 2010, dated 2015) come the findings set out here.

One experiment relates to activated human PBMCs. The experiment in a line: PBMC stimulation and cytokine release assay. The class given is cell-based. How it is done: Cryopreserved human PBMCs were purchased from Cellular Technology Ltd. thawed and counted as outlined in the supplier's protocol using CTL-anti-Aggregate-Wash-Supplement. Cells were washed and plated in CTL's serum free medium to −10^5 cells/well in anti-human CD3 coated 96 well T-cell activation plates (BD; Cat. No: 354725) together with anti-human CD28 antibody (BD; Cat. No: 555725) to a final concentration of 2 μg/mL. Samples were either treated with vehicle (0.1%) or small chemical molecules of the indicated concentrations.
For end point determination of cytokine production the cells were incubated for 72 h at 37° C. and 5% CO2. Supernatants were harvested and stored frozen at −80° C. until further processing. The cells were assayed for viability by incubation for 15 min with fluoresceindiacetate (5 μg/mL in PBS) and subsequent measurement of fluorescein (485 nm/535 nm).
Cytokine concentrations in the supernatants were determined in bead-based multiplex ELISA assays using Procarta Cytokine Assay Kits (Panomics) following the manufacturers instructions. The samples were read in a Luminex100 device and analysed with the IS Luminex 2.3 Software using a 5 parameter non-linear regression curve-fitting model.

Experiment [1] has as its target T1, RORγ ligand binding domain (LBD) (Homo sapiens, UniProt P51449).
T1 construct: made in house; host or cells: E. coli BL-21 (BL3), vector pDEST15
T1 sequence (P51449 269-508 limits assumed): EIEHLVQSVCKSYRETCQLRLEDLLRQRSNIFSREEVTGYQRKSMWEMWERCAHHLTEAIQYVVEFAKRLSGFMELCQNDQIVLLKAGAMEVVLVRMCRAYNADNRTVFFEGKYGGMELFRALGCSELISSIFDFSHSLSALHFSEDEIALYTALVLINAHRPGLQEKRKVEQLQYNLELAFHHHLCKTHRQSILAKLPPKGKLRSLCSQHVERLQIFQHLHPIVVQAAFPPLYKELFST
The experiment in a line: TR-FRET Activity Assay (RORγ-LBD / coactivator peptide interaction). As to conditions: Table 2; read-out: RORγ activity in the TR-FRET Activity Assay (IC50 FRET), Group. The class given is biochemical. From the text: This method measures the ability of putative ligands to modulate the interaction between the purified bacterial expressed RORγ ligand binding domain (LBD) and synthetic N-terminally biotinylated peptides which are derived from nuclear receptor coactivator proteins such as but not limited to SRC1 (NcoA1), SRC2 (NcoA2, TIF2), SRC3 (NcoA3), PGC1α, PGC1β, CBP, GRIP1, TRAP220, RIP140.
The ligand-binding domain (LBD) of RORγ was expressed as fusion protein with GST in […] cells using the vector pDEST15. Cells were lysed by lysozyme-treatment and sonication, and the fusion proteins purified over glutathione sepharose (Pharmacia) according to the manufacturers instructions. For screening of compounds for their influence on the RORγ-peptide interaction, the LANCE technology (Perkin Elmer) was applied. This method relies on the binding dependent energy transfer from a donor to an acceptor fluorophor attached to the binding partner of interest. For ease of handling and reduction of background from compound fluorescence LANCE technology makes use of generic fluorophore labels and time resolved detection assays were done in a final volume of 25 μL in a 384 well plate, in a Tris-based buffer system (20 mM Tris-HCl pH6.8; 60 mM KCl, 1 mM DTT; 5 mM MgCl2; 35 ng/μL BSA), containing 20-60 ng/well recombinantly expressed RORγ-LBD fused to GST, 200-600 nM N-terminally biotinylated peptide, 200 ng/well Streptavidin-xIAPC conjugate (Prozyme) and 6-10 ng/well Eu W1024—antiGST (Perkin Elmer). DMSO content of the samples was kept at 1%.
After generation of the Tris-based buffer system, the potentially RORγ modulating ligands were diluted. […] The LANCE signal was detected by a Perkin Elmer EnVision™ Multilabel Counter. The results were visualized by plotting the ratio between the emitted light at 665 nm and 615 nm. […] Ligands that promote the complex formation induce a concentration-dependent increase in time-resolved fluorescent signal.
To assess the antagonistic potential of the compounds, IC50 values were determined using a Ligand Sensing Assay based on Time-resolved Fluorescence Energy Transfer (TR-FRET) as described above. The normalised TR-FRET assay values, using the following equation: 1000*665 nm measurement value/615 nm measurement value, were transferred to the program GraphPad Prism to generate graphs and dose response curves using the following equation: • Equation: Sigmoidal dose-response (variable slope) Y=Bottom+(Top−Bottom)/(1+10^((Log EC50−X)*HillSlope))
This is identical to the “four parameter logistic equation”. The IC50 values are calculated using this equation.
Background: Time-resolved FRET reads energy transfer from a long-lived donor to a nearby acceptor.

The test system of experiment [2] is plasma cytokines in C57/bl6 mice. Description: In vivo assay for suppression of IL-17 (MOG/CFA/PTX immunisation). More on the design: species or system mouse. As to conditions: 2×10 mg/(kg×day) i.p., MOG peptide+CFA+PTX immunised mice. From the text: All animal models that mimic human autoimmune disease suffer from the issue that they are long lasting, require substantial amounts of exploratory drugs and do mostly not allow for monitoring IL-17 production in a simple setup. We therefore developed an in vivo assay based on an immunisation protocol that stems from a typical mouse Experimental Autoimmune Encephalomyelitis (EAE) model. Such EAE models employ the administration of certain autoimmunogenic peptides derived from i.e. Myelin Oligodendrocyte Glycoprotein (MOG) in conjunction with co-administration of a strong immune stimulants such as Complete Freund's Adjuvans (CFA) and a booster for T-cell activation such as Pertussis Toxin (PTX) to induce an autoimmune response. IL-17 producing Th17 cells are elevated under these conditions and about 14-21 days after the immunisation macroscopic signs of CNS inflammation such as impairment of movement become visible.
This immunisation scheme, while disturbing the regular development of macroscopic EAE symptoms in mice, allows for the monitoring of proinflammatory cytokines in plasma, specifically for IL-17, IL-2 and Interferon gamma IFNγ. […]

A word on the IC50: it is the concentration needed to halve the response being measured. As to `O=S(=O)(c1cccc2cccnc12)N1Cc2ccccc2COC[C@H]1COCC1CC1` [16/4], the “effects on Th17-cytokine production in activated human PBMCs (FIG. 2)” value (“effects on Th17-cytokine production” below) in the experiment on activated human PBMCs is on record as “selective inhibitory effects”. Further, the IC50 in experiment [1] was 500 to 2000 nM.
For `O=S(=O)(c1cccc2cccnc12)N1Cc2ccccc2COCC1Cc1ccccc1` (stereo not shown) [1/8], in experiment [2], the “plasma IFNγ levels (FIG. 1)” value is listed as “increase” and the “plasma IL-17 levels (FIG. 1)” value is “nearly completely reduced”. Further, the concentration for half-maximal inhibition (IC50) in experiment [1] is less than 500 nM.
Regarding `O=S(=O)(c1cccc2cccnc12)N1Cc2ccccc2COCC1CC1CCCC1` (stereo not shown) [1/44], in the experiment with activated human PBMCs, the “effects on Th17-cytokine production” value is reported as “selective inhibitory effects”. The IC50 in experiment [1] is less than 500 nM.
On to `COc1ccccc1S(=O)(=O)N1Cc2ccccc2COCC1Cc1ccccc1` (stereo not shown) [Preparative Example 1, 4-Benzyl-5-(2-methoxyphenylsulfonyl)-3,4,5,6-tetrahydro-1H-benzo[f][1,4]-oxazocine], for which the “effects on Th17-cytokine production” value in the experiment on activated human PBMCs is given as “selective inhibitory effects”. The IC50 in experiment [1] was less than 500 nM.
On the same counts, the results for `O=S(=O)(c1cccc2cccnc12)N1Cc2ccccc2COC[C@H]1COCC1CCC1` [16/3] are “selective inhibitory effects” and 500 to 2000 nM.
Turning to `O=S(=O)(c1cccc2cccnc12)N1Cc2cccc(O)c2COCC1Cc1ccccc1` (stereo not shown) [compound 13], the IC50 in experiment [1] is more than 2000 nM.
Consider `COc1ccccc1S(=O)(=O)N1Cc2ccccc2COCC1Cc1ccc(Br)cc1` (stereo not shown) [compound 3], for which, in experiment [1], the IC50 is more than 2000 nM.
Still for that read-out and setting: the same measure for `O=S(=O)(c1ccccc1OC(F)(F)F)N1Cc2nncn2CCC[C@H]1Cc1ccccc1` [31/1]: 500 to 2000 nM; for `O=S(=O)(c1c(F)cccc1F)N1Cc2ccccc2COCC1Cc1ccccc1` (stereo not shown) [1/22]: less than 500 nM; for `O=S(=O)(c1cccc2cccnc12)N1Cc2ccccc2CCCC1Cc1ccccc1` (stereo not shown) [compound 30]: 500 to 2000 nM.
The same measure, in the same setting: under `Cn1cnc(S(=O)(=O)N2Cc3ccccc3COCC2Cc2ccccc2)c1Cl` (stereo not shown) [1/31] stands more than 2000 nM; under `O=S(=O)(c1cccc2nsnc12)N1Cc2ccccc2COCC1Cc1ccccc1` (stereo not shown) [1/12], less than 500 nM; under `O=S(=O)(c1ccccc1F)N1Cc2ccccc2COCC1Cc1ccccc1` (stereo not shown) [1/14], less than 500 nM.
Still for that read-out and setting: under `COc1cccc2c1COCC(Cc1ccccc1)N(S(=O)(=O)c1cccc3cccnc13)C2` (stereo not shown) [1/40] stands less than 500 nM; under `COc1ccc(F)cc1S(=O)(=O)N1Cc2ccccc2COCC1Cc1ccccc1` (stereo not shown) [1/5], less than 500 nM.
Take `Cc1nc(S(=O)(=O)N2Cc3ccccc3COCC2Cc2ccccc2)cn1C` (stereo not shown) [1/30]: in experiment [1], the IC50 was more than 2000 nM.
Consider `O=S(=O)(c1cccc2cccnc12)N1Cc2ccccc2COC[C@H]1CN1CCOCC1` [17/4], for which the IC50 in experiment [1] is less than 500 nM.
Take `COc1ccccc1S(=O)(=O)N1Cc2ccccc2COCC1Cc1ccc(C#N)cc1` (stereo not shown) [5/4]: the IC50 in experiment [1] is more than 2000 nM.
Same read-out and setting: the same measure for `O=S(=O)(c1cccc2cccnc12)N1Cc2ccccc2COC[C@H]1Cn1cccn1` [Preparative Example 17, (R)-4-((1H-Pyrazol-1-yl)methyl)-5-(quinolin-8-ylsulfonyl)-3,4,5,6-tetrahydro-1H-benzo[f][1,4]oxazocine]: more than 2000 nM.
In the case of `O=S(=O)(c1cccc2cccnc12)N1Cc2cccnc2COC[C@H]1Cc1ccccc1` [compound 6], the IC50 in experiment [1] was less than 500 nM.
In the case of `COc1ccccc1S(=O)(=O)N1Cc2cc(F)ccc2COCC1Cc1ccccc1` (stereo not shown) [1/33], the IC50 in experiment [1] is more than 2000 nM.
Still for that read-out and setting: under `COc1ccc(Cl)cc1S(=O)(=O)N1Cc2ccccc2COCC1Cc1ccccc1` (stereo not shown) [1/6] stands less than 500 nM; under `COc1ccccc1S(=O)(=O)N1Cc2ccccc2COCC1Cc1cccc(C#N)c1` (stereo not shown) [5/3], less than 500 nM.
The same measure, in the same setting: under `CC(C)(C)OC[C@@H]1COCc2ccccc2CN1S(=O)(=O)c1cccc2cccnc12` [Preparative Example 14, (S)-4-(tert-Butoxymethyl)-5-(quinolin-8-ylsulfonyl)-3,4,5,6-tetrahydro-1H-benzo[f][1,4]oxazocine] stands less than 500 nM.
Still for that read-out and setting: the same measure for `COc1ccccc1S(=O)(=O)N1Cc2ccccc2COCC1Cc1cccc(Br)c1` (stereo not shown) [3/2]: less than 500 nM.
